{
  "source": "patent US20260262643A1",
  "about": "“HERBICIDAL BENZOXAZINES” (FMC CORPORATION, priority 2022, published 2026)",
  "key": {"[1]": {"test_system": "ragweed", "assay": "Test A preemergence", "type": "in vivo, Ambrosia artemisiifolia", "conditions": "0 to 100 scale", "outline": "(§1)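 Plants were grown in loam and sand and treated preemergence or postemergence (one- to two-leaf stage, 2–10 cm) with compound in solvent plus surfactant. Response was scored against untreated controls after 10 greenhouse days, where 0 means no effect and 100 complete control.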"}, "[2]": {"test_system": "galium", "assay": "Test A postemergence", "type": "in vivo, Galium aparine", "conditions": "postemergence, 10 days", "outline": "as §1"}, "[3]": {"test_system": "kochia", "assay": "Test A postemergence", "type": "in vivo, Bassia scoparia", "conditions": "postemergence, 10 days", "outline": "as §1"}, "[4]": {"test_system": "foxtail, giant", "assay": "Test A postemergence", "type": "in vivo, Setaria faberi", "conditions": "postemergence, 10 days", "outline": "as §1"}, "[5]": {"test_system": "barnyardgrass", "assay": "Test B flooded paddy test", "type": "in vivo, Echinochloa crus-galli", "conditions": "250 g ai/ha, Flood, 13 days, 0 to 100 scale (0 no effect, 100 complete control)", "outline": "(§2)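 Species grown to 2-leaf stage; pots flooded 3 cm above soil and compound applied directly to paddy water, depth maintained throughout. After 13 days in greenhouse, plants visually rated against controls on 0–100 scale (0 no effect, 100 complete control); dash means no result.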"}, "[6]": {"test_system": "pigweed, palmer", "assay": "Test A preemergence", "type": "in vivo, Amaranthus palmeri", "conditions": "0 to 100 scale", "outline": "as §1"}, "[7]": {"test_system": "ducksalad", "assay": "Test B flooded paddy test", "type": "in vivo, Heteranthera limosa", "conditions": "250 g ai/ha, Flood, 13 days, 0 to 100 scale (0 no effect, 100 complete control)", "outline": "as §2"}, "[8]": {"test_system": "horseweed", "assay": "Test A postemergence", "type": "in vivo, Erigeron canadensis", "conditions": "postemergence, 10 days", "outline": "as §1"}, "[9]": {"test_system": "pigweed, palmer", "assay": "Test A postemergence", "type": "in vivo, Amaranthus palmeri", "conditions": "postemergence, 10 days", "outline": "as §1"}, "[10]": {"test_system": "wheat", "assay": "Test A preemergence", "type": "in vivo, Triticum aestivum", "conditions": "0 to 100 scale", "outline": "as §1"}, "[11]": {"test_system": "rice", "assay": "Test B flooded paddy test", "type": "in vivo, Oryza sativa", "conditions": "250 g ai/ha, Flood, 13 days, 0 to 100 scale (0 no effect, 100 complete control)", "outline": "as §2"}, "[12]": {"test_system": "barnyardgrass", "assay": "Test A postemergence", "type": "in vivo, Echinochloa crusgalli", "conditions": "postemergence, 10 days", "outline": "as §1"}, "[13]": {"test_system": "ryegrass, Italian", "assay": "Test A postemergence", "type": "in vivo, Lolium multiflorum", "conditions": "postemergence, 10 days", "outline": "as §1"}, "[14]": {"test_system": "corn", "assay": "Test A preemergence", "type": "in vivo, Zea mays", "conditions": "0 to 100 scale", "outline": "as §1"}, "[15]": {"test_system": "ragweed", "assay": "Test A postemergence", "type": "in vivo, Ambrosia artemisiifolia", "conditions": "postemergence, 10 days", "outline": "as §1"}, "[16]": {"test_system": "oat, wild", "assay": "Test A postemergence", "type": "in vivo, Avena fatua", "conditions": "postemergence, 10 days", "outline": "as §1"}, "[17]": {"test_system": "blackgrass", "assay": "Test A preemergence", "type": "in vivo, Alopecurus myosuroides", "conditions": "0 to 100 scale", "outline": "as §1"}, "[18]": {"test_system": "oat, wild", "assay": "Test A preemergence", "type": "in vivo, Avena fatua", "conditions": "0 to 100 scale", "outline": "as §1"}, "[19]": {"test_system": "blackgrass", "assay": "Test A postemergence", "type": "in vivo, Alopecurus myosuroides", "conditions": "postemergence, 10 days", "outline": "as §1"}, "[20]": {"test_system": "soybean", "assay": "Test A postemergence", "type": "in vivo, Glycine max", "conditions": "postemergence, 10 days", "outline": "as §1"}, "[21]": {"test_system": "barnyardgrass", "assay": "Test A preemergence", "type": "in vivo, Echinochloa crusgalli", "conditions": "visual injury after 10 days, 0 to 100 scale, 0 is no effect, 100 is complete control", "outline": "as §1"}, "[22]": {"test_system": "soybean", "assay": "Test A preemergence", "type": "in vivo, Glycine max", "conditions": "0 to 100 scale", "outline": "as §1"}, "[23]": {"test_system": "sedge, umbrella", "assay": "Test B flooded paddy test", "type": "in vivo, Cyperus difformis", "conditions": "250 g ai/ha, Flood, 13 days, 0 to 100 scale (0 no effect, 100 complete control)", "outline": "as §2"}, "[24]": {"test_system": "wheat", "assay": "Test A postemergence", "type": "in vivo, Triticum aestivum", "conditions": "postemergence, 10 days", "outline": "as §1"}, "[25]": {"test_system": "foxtail, giant", "assay": "Test A preemergence", "type": "in vivo, Setaria faberi", "conditions": "0 to 100 scale", "outline": "as §1"}, "[26]": {"test_system": "corn", "assay": "Test A postemergence", "type": "in vivo, Zea mays", "conditions": "postemergence, 10 days", "outline": "as §1"}, "[27]": {"test_system": "kochia", "assay": "Test A preemergence", "type": "in vivo, Bassia scoparia", "conditions": "0 to 100 scale", "outline": "as §1"}, "[28]": {"test_system": "ryegrass, Italian", "assay": "Test A preemergence", "type": "in vivo, Lolium multiflorum", "conditions": "0 to 100 scale", "outline": "as §1"}, "[29]": {"conditions": "500 g ai/ha, visual injury after 10 days, 0 is no effect, 100 is complete control"}, "[30]": {"conditions": "125 g ai/ha, 0 to 100 scale, 0 no effect, 100 complete control"}, "[31]": {"conditions": "500 g ai/ha, visual injury, 0 to 100 scale (0 no effect, 100 complete control)"}},
  "data": [
    {"smiles": "CC(C)c1ncn(-c2ccc(OC(F)F)c(C(=O)N3C[C@H](C)Oc4c(Cl)cccc43)c2)n1", "note": "[Compound 143]", "values": [
      {"measurement": "Plant response rating, Ragweed", "setting": "[1]; 125 g ai/ha", "result": 30},
      {"measurement": "Plant response rating, Ragweed", "setting": "[1]; [29]", "result": 90},
      {"measurement": "Galium plant response rating", "setting": "[2]; [30]", "result": 100},
      {"measurement": "Plant response rating, Galium", "setting": "[2]; [31]", "result": 100},
      {"measurement": "Kochia plant response rating", "setting": "[3]; [30]", "result": 90},
      {"measurement": "Plant response rating, Kochia", "setting": "[3]; [31]", "result": 90},
      {"measurement": "Foxtail, Giant plant response rating", "setting": "[4]; [30]", "result": 90},
      {"measurement": "Plant response rating, Foxtail, Giant", "setting": "[4]; [31]", "result": 90},
      {"measurement": "Plant response rating, Barnyardgrass", "setting": "[5]", "result": 40},
      {"measurement": "Plant response rating, Pigweed, Palmer", "setting": "[6]; 125 g ai/ha", "result": 100},
      {"measurement": "Plant response rating, Pigweed, Palmer", "setting": "[6]; [29]", "result": 100},
      {"measurement": "Plant response rating, Ducksalad", "setting": "[7]", "result": 65},
      {"measurement": "Horseweed plant response rating", "setting": "[8]; [30]", "result": 20},
      {"measurement": "Plant response rating, Horseweed", "setting": "[8]; [31]", "result": 50},
      {"measurement": "Pigweed, Palmer plant response rating", "setting": "[9]; [30]", "result": 60},
      {"measurement": "Plant response rating, Pigweed, Palmer", "setting": "[9]; [31]", "result": 80},
      {"measurement": "Plant response rating, Wheat", "setting": "[10]; 125 g ai/ha", "result": 90},
      {"measurement": "Plant response rating, Wheat", "setting": "[10]; [29]", "result": 50},
      {"measurement": "Plant response rating, Rice", "setting": "[11]", "result": 0},
      {"measurement": "Barnyardgrass plant response rating", "setting": "[12]; [30]", "result": 50},
      {"measurement": "Plant response rating, Barnyardgrass", "setting": "[12]; [31]", "result": 90},
      {"measurement": "Ryegrass, Italian plant response rating", "setting": "[13]; [30]", "result": 50},
      {"measurement": "Plant response rating, Ryegrass, Italian", "setting": "[13]; [31]", "result": 80},
      {"measurement": "Plant response rating, Corn", "setting": "[14]; 125 g ai/ha", "result": 10},
      {"measurement": "Plant response rating, Corn", "setting": "[14]; [29]", "result": 40},
      {"measurement": "Ragweed plant response rating", "setting": "[15]; [30]", "result": 40},
      {"measurement": "Plant response rating, Ragweed", "setting": "[15]; [31]", "result": 70},
      {"measurement": "Oat, Wild plant response rating", "setting": "[16]; [30]", "result": 10},
      {"measurement": "Plant response rating, Oat, Wild", "setting": "[16]; [31]", "result": 70},
      {"measurement": "Plant response rating, Blackgrass", "setting": "[17]; 125 g ai/ha", "result": 40},
      {"measurement": "Plant response rating, Blackgrass", "setting": "[17]; [29]", "result": 70},
      {"measurement": "Plant response rating, Oat, Wild", "setting": "[18]; 125 g ai/ha", "result": 60},
      {"measurement": "Plant response rating, Oat, Wild", "setting": "[18]; [29]", "result": 90},
      {"measurement": "Blackgrass plant response rating", "setting": "[19]; [30]", "result": 80},
      {"measurement": "Plant response rating, Blackgrass", "setting": "[19]; [31]", "result": 90},
      {"measurement": "Soybean plant response rating", "setting": "[20]; [30]", "result": 100},
      {"measurement": "Plant response rating, Soybean", "setting": "[20]; [31]", "result": 100},
      {"measurement": "Plant response rating, Barnyardgrass", "setting": "[21]; 125 g ai/ha", "result": 90},
      {"measurement": "Plant response rating, Barnyardgrass", "setting": "[21]; 500 g ai/ha", "result": 100},
      {"measurement": "Plant response rating, Soybean", "setting": "[22]; 125 g ai/ha", "result": 100},
      {"measurement": "Plant response rating, Soybean", "setting": "[22]; [29]", "result": 100},
      {"measurement": "Plant response rating, Sedge, Umbrella", "setting": "[23]", "result": 98},
      {"measurement": "Wheat plant response rating", "setting": "[24]; [30]", "result": 30},
      {"measurement": "Plant response rating, Wheat", "setting": "[24]; [31]", "result": 40},
      {"measurement": "Plant response rating, Foxtail, Giant", "setting": "[25]; 125 g ai/ha", "result": 100},
      {"measurement": "Plant response rating, Foxtail, Giant", "setting": "[25]; [29]", "result": 100},
      {"measurement": "Corn plant response rating", "setting": "[26]; [30]", "result": 90},
      {"measurement": "Plant response rating, Corn", "setting": "[26]; [31]", "result": 90},
      {"measurement": "Plant response rating, Kochia", "setting": "[27]; 125 g ai/ha", "result": 80},
      {"measurement": "Plant response rating, Kochia", "setting": "[27]; [29]", "result": 100},
      {"measurement": "Plant response rating, Ryegrass, Italian", "setting": "[28]; 125 g ai/ha", "result": 80},
      {"measurement": "Plant response rating, Ryegrass, Italian", "setting": "[28]; [29]", "result": 90}
    ]}
  ]
}
